Data set [1] has as its system human neuroblastoma cell lines SH-SY5Y. The data set can be described thus: Improvement of mitochondrial dysfunction in MPP+-treated SH-SY5Y cells (Alamar Blue mitochondrial oxidation reduction activity). It is filed as cell-based. Conditions: SH-SY5Y cells in 1.5 mM MPP+ medium, relative to cells in DMSO alone = 100%, read-out: Fluorescence Intensity (%); for activity at 0.01 µg/mL: test compound 0.01 μg/ml; for activity at 0.03 µg/mL: test compound 0.03 μg/ml; for activity at 0.1 µg/mL: test compound 0.1 μg/ml; for activity at 0.3 µg/mL: test compound 0.3 μg/ml; for activity at 1 µg/mL: test compound 1 μg/ml. The method, then: Evaluation of Improvement of Mitochondrial Dysfunction using Human Neuroblastoma Cell Lines SH-SY5Y Treated with 1-methyl-4-phenylpyridinium (MPP^+)
In human neuroblastoma cell lines SH-SY5Y in which mitochondrial activity was injured by MPP^+ treatment (Bollimuntha S. et al., J Biol Chem, 280, 2132-2140 (2005) and Shang T. et al., J Biol Chem, 280, 34644-34653 (2005)), improvement of the mitochondrial dysfunction was evaluated on the basis of the measurement value of the mitochondrial oxidation reduction activity using Alamar Blue fluorescent dye after the compound addition (Nakai M. et. al, Exp Neurol, 179, 103-110 (2003)).
The human neuroblastoma cell lines SH-SY5Y were cultured in Dulbecco's Modified Eagle's Medium containing 10% fetal bovine serum (DMEM containing 50 units/ml penicillin and 50 μg/ml streptomycin as antibiotics) at 37° C. in the presence of 5% carbon dioxide. Cells were scattered on a poly-D-lysine-coated 96-well black plate at a concentration of 3-6×10^4 cells/cm^2 (medium amount: 100 μl/well), and cultured in the above medium for two days. Further, the medium was changed to a DMEM containing a 1% N2 supplement (N2-DMEM) or to a medium (100 μl/well) in which 1.5 mM MPP^+ was dissolved. The cells were cultured therein for 39 to 48 hours, and then subjected to a mitochondrial oxidation reduction activity measurement system. A sample compound that had been previously dissolved in dimethyl sulfoxide (DMSO) was diluted with N2-DMEM, and added in a volume of 10 μl/well 24 hours before the activity measurement (final compound concentration: 0.01 to 1 μg/ml).
After removal of the medium by suction, a balanced salt solution containing 10% Alamar Blue (154 mM sodium chloride, 5.6 mM potassium chloride, 2.3 mM calcium chloride, 1.0 mM magnesium chloride, 3.6 mM sodium bicarbonate, 5 mM glucose, 5 mM HEPES, pH 7.2) was added in a volume of 100 μl/well, and reacted in an incubator at 37° C. for 1 hour. The fluorescent intensity was detected using a fluorescence detector (a product of Hamamatsu Photonics K.K., excitation wavelength 530 nm, measurement wavelength 580 nm) to thereby measure the mitochondrial oxidation reduction activity.
The fluorescent intensity of the well of the cells cultured in a medium containing MPP^+ and in each of the sample compounds was relatively evaluated based on a 100% fluorescent intensity of the well of the cells cultured in a medium containing DMSO alone (final concentration: 0.1%).

The compound `CCCOc1ccc(F)c2c(=O)c(-c3ccc(CC)cc3)c[nH]c12` [Example 53, 3-(4-Ethylphenyl)-5-fluoro-8-propoxy-1H-quinolin-4-one] had a melting point of 153 to 154 °C. Further, in data set [1], the activity at 0.01 µg/mL was 53%, the activity at 0.03 µg/mL was 56%, the activity at 0.1 µg/mL amounted to 67% and the activity at 0.3 µg/mL worked out at 60%. For the same compound, the activity at 1 µg/mL in data set [1] amounted to 67%.
Consider `CCCSc1ccc(F)c2c(=O)c(-c3ccc(OC)cc3)c[nH]c12` [Example 40, 5-Fluoro-3-(4-methoxyphenyl)-8-propylsulfanyl-1H-quinolin-4-one], for which the melting point lay in the range of 173 to 174 °C. In addition, in data set [1], the activity at 0.01 µg/mL was found to be 60%, the activity at 0.03 µg/mL was 64%, the activity at 0.1 µg/mL amounted to 76% and the activity at 0.3 µg/mL was determined as 70%. Besides, the activity at 1 µg/mL in data set [1] is 72%.
As to `CCCOc1ccc(F)c2c(=O)c(-c3ccsc3)c[nH]c12` [Example 3, 5-Fluoro-8-propoxy-3-thiophen-3-yl-1H-quinolin-4-one], the melting point is 208 to 210 °C. For the same compound, in data set [1], the activity at 0.01 µg/mL is 54%, the activity at 0.03 µg/mL was 63%, the activity at 0.1 µg/mL was found to be 70% and the activity at 0.3 µg/mL is 78%. In addition, the activity at 1 µg/mL in data set [1] was 74%.
For the compound `CCCOc1ccc(F)c2c(=O)c(-c3ccc(OC)nc3OC)c[nH]c12` [Example 64, 3-(2,6-Dimethoxypyridin-3-yl)-5-fluoro-8-propoxy-1H-quinolin-4-one], the melting point lay within 198 to 199 °C. Also, in data set [1], the activity at 0.01 µg/mL turned out to be 55%, the activity at 0.03 µg/mL worked out at 65%, the activity at 0.1 µg/mL stood at 74% and the activity at 0.3 µg/mL turned out to be 72%. The activity at 1 µg/mL in data set [1] came out at 77%.
For `COc1ccc(-c2c[nH]c3c(-c4ccco4)ccc(F)c3c2=O)cc1` [Example 86, 5-Fluoro-8-furan-2-yl-3-(4-methoxyphenyl)-1H-quinolin-4-one], the melting point was in the range of 209 to 211 °C. Further, in data set [1], the activity at 0.01 µg/mL was determined as 52%, the activity at 0.03 µg/mL was 59%, the activity at 0.1 µg/mL turned out to be 68% and the activity at 0.3 µg/mL came out at 61%. Also, the activity at 1 µg/mL in data set [1] is 39%.
`COc1ccc(-c2c[nH]c3c(OC4CCCC4)ccc(F)c3c2=O)cc1` [Example 37, 8-Cyclopentyloxy-5-fluoro-3-(4-methoxyphenyl)-1H-quinolin-4-one] had a melting point of 213 to 215 °C. Besides, in data set [1], the activity at 0.01 µg/mL is 64%, the activity at 0.03 µg/mL was 73%, the activity at 0.1 µg/mL worked out at 78% and the activity at 0.3 µg/mL came to 70%. Also, the activity at 1 µg/mL in data set [1] was found to be 61%.
In turn, `CCCOc1ccc(F)c2c(=O)c(-c3ccsc3CO)c[nH]c12` [Example 100, 5-Fluoro-3-(2-hydroxymethylthiophen-3-yl)-8-propoxy-1H-quinolin-4-one] gave a melting point of 181 to 184 °C. Besides, in data set [1], the activity at 0.01 µg/mL was 56%, the activity at 0.03 µg/mL stood at 56%, the activity at 0.1 µg/mL turned out to be 71% and the activity at 0.3 µg/mL was 73%. Further, the activity at 1 µg/mL in data set [1] was 84%.
`CCCOc1ccc(F)c2c(=O)c(-c3ccc(OCC4CC4)cc3)c[nH]c12` [Example 35, 3-(4-Cyclopropylmethoxyphenyl)-5-fluoro-8-propoxy-1H-quinolin-4-one] registered a melting point of 162 to 163 °C. In addition, in data set [1], the activity at 0.01 µg/mL was 75%, the activity at 0.03 µg/mL was determined as 88%, the activity at 0.1 µg/mL worked out at 99% and the activity at 0.3 µg/mL came out at 95%. For the same compound, the activity at 1 µg/mL in data set [1] is 65%.
For the compound `COc1ccc(-c2c[nH]c3c(OCC4CC4)ccc(F)c3c2=O)cc1` [Example 24, 8-Cyclopropylmethoxy-5-fluoro-3-(4-methoxyphenyl)-1H-quinolin-4-one], the melting point lay in the range of 190 to 191 °C. Also, in data set [1], the activity at 0.01 µg/mL worked out at 60%, the activity at 0.03 µg/mL was determined as 70%, the activity at 0.1 µg/mL worked out at 82% and the activity at 0.3 µg/mL came to 78%. The activity at 1 µg/mL in data set [1] stood at 84%.
For the compound `CCCOc1ccc(F)c2c(=O)c(-c3ccc(N(C)C)cc3)c[nH]c12` [Example 61, 3-(4-Dimethylaminophenyl)-5-fluoro-8-propoxy-1H-quinolin-4-one], the melting point is 206 to 207 °C. Moreover, in data set [1], the activity at 0.01 µg/mL was 70%, the activity at 0.03 µg/mL is 65%, the activity at 0.1 µg/mL was found to be 85% and the activity at 0.3 µg/mL is 80%. Further, the activity at 1 µg/mL in data set [1] turned out to be 86%.
Consider `COc1ccc(-c2c[nH]c3c(OCCCC(F)(F)F)ccc(F)c3c2=O)cc1` [Example 31, 5-Fluoro-3-(4-methoxyphenyl)-8-(4,4,4-trifluorobutoxy)-1H-quinolin-4-one], for which the melting point was in the range of 171 to 172 °C. Besides, in data set [1], the activity at 0.01 µg/mL amounted to 45%, the activity at 0.03 µg/mL came out at 45%, the activity at 0.1 µg/mL was 57% and the activity at 0.3 µg/mL was found to be 59%. Also, in data set [1], the activity at 1 µg/mL came out at 48%.
Take `CCCOc1ccc(F)c2c(=O)c(-c3ccc(OC)cc3)cn(CCOCC)c12` [Example 93, 1-(2-Ethoxyethyl)-5-fluoro-3-(4-methoxyphenyl)-8-propoxy-1H-quinolin-4-one]: the melting point is 108 to 109 °C. Further, in data set [1], the activity at 0.01 µg/mL was determined as 66%, the activity at 0.03 µg/mL came out at 79%, the activity at 0.1 µg/mL turned out to be 86% and the activity at 0.3 µg/mL was 80%. Also, the activity at 1 µg/mL in data set [1] was found to be 69%.
The compound `CCCOc1ccc(F)c2c(=O)c(-c3ccc(OC)cc3)cn(C)c12` [Example 91, 5-Fluoro-3-(4-methoxyphenyl)-1-methyl-8-propoxy-1H-quinolin-4-one] came in with a melting point of 147 to 148 °C. In addition, in data set [1], the activity at 0.01 µg/mL was 65%, the activity at 0.03 µg/mL is 69%, the activity at 0.1 µg/mL was determined as 81% and the activity at 0.3 µg/mL amounted to 82%. In addition, in data set [1], the activity at 1 µg/mL stood at 83%.
With `CCCOc1ccc(F)c2c(=O)c(-c3ccc(OC)c(Cl)c3)c[nH]c12` [Example 4, 3-(3-Chloro-4-methoxyphenyl)-5-fluoro-8-propoxy-1H-quinolin-4-one], the melting point was in the range of 217 to 218 °C. In data set [1], the activity at 0.01 µg/mL was determined as 56%, the activity at 0.03 µg/mL amounted to 61%, the activity at 0.1 µg/mL came to 70% and the activity at 0.3 µg/mL stood at 72%. Moreover, in data set [1], the activity at 1 µg/mL stood at 59%.
For `COc1ccc(-c2c[nH]c3c(N(C)C4CCCCC4)ccc(F)c3c2=O)cc1` [Example 25, 8-(N-Cyclohexyl-N-methylamino)-5-fluoro-3-(4-methoxyphenyl)-1H-quinolin-4-one], the melting point was 224 to 225 °C. For the same compound, in data set [1], the activity at 0.01 µg/mL came to 46%, the activity at 0.03 µg/mL worked out at 56%, the activity at 0.1 µg/mL was found to be 66% and the activity at 0.3 µg/mL was 50%. Also, in data set [1], the activity at 1 µg/mL came out at 24%.
The compound `CCCOc1ccc(F)c2c(=O)c(-c3ccc(OC)cc3)c[nH]c12` [Example 6, 5-Fluoro-3-(4-methoxyphenyl)-8-propoxy-1H-quinolin-4-one] returned a melting point of 196 to 197 °C. Moreover, in data set [1], the activity at 0.01 µg/mL was 59%, the activity at 0.03 µg/mL was determined as 71%, the activity at 0.1 µg/mL was determined as 85% and the activity at 0.3 µg/mL is 88%. Besides, the activity at 1 µg/mL in data set [1] amounted to 83%.
`CCCOc1ccc(F)c2c(=O)c(-c3ccoc3)c[nH]c12` [Example 1, 5-Fluoro-3-furan-3-yl-8-propoxy-1H-quinolin-4-one] returned a melting point of 214 to 215 °C. In data set [1], the activity at 0.01 µg/mL worked out at 51%, the activity at 0.03 µg/mL turned out to be 62%, the activity at 0.1 µg/mL worked out at 70% and the activity at 0.3 µg/mL amounted to 66%. Besides, in data set [1], the activity at 1 µg/mL is 64%.

The values above are taken from patent US20160304461A1, “QUINOLONE COMPOUND AND PHARMACEUTICAL COMPOSITION” (OTSUKA PHARMACEUTICAL CO., LTD., priority 2007, published 2016).
